The subject of data set [1] is RGC axons in the optic nerve. The data set can be described thus: Optic nerve axon regeneration after optic nerve crush, GAP-43-positive axons distal to the crush site. The class given is in vivo, mouse. The settings on record: for effect on axon regeneration: intraocular injection, days 0 and 4 after ONC; for effect on axon regeneration / most effective concentration for axon regeneration: evaluated at 2 weeks; for maximally effective concentration for axon regeneration (unit not given): FIG. 4 / FIG. 7, 2 weeks after optic nerve injury, multiple injections; for added effect of pre-treatment (additional injection one day before ONC) on axon regeneration: compared with 2 post-injury injections; for most effective concentration for axon regeneration: intraocular injection immediately after optic nerve crush and 4 days later; for axon regeneration in combination with pten gene deletion: pten deleted in RGCs by AAV2-Cre, 2 weeks. The procedure: (§1) Studies were performed at Children's Hospital Boston with the approval of the Institutional Animal Care and Use Committee. Experiments used male mice of the strain C57BL/6J (Jackson lab, Bar Harbor, Me.), at 8- to 10-week-old age.
(§2) Adult mice were anesthetized with a combination of ketamine and xylazine given intraperitoneally. A conjunctival incision was made over the dorsal aspect of one eye, which is then gently rotated downward in the orbit. The orbital muscles were slightly separated to expose the optic nerve at its exit from the globe, which were then crushed for 5 seconds with jewelers' forceps (Dumont number 5) near the back of the eye (within 0.5 mm). […] Same volume PBS was injected intravitreally in control group.
(§3) Mice were sacrificed with an overdose of anesthesia 14 d after optic nerve injury and were perfused with saline and 4% paraformaldehyde (PFA). […]. Optic nerves and eyes were dissected and postfixed in PFA. Nerves were impregnated with 30% sucrose, embedded in OCT Tissue Tek Medium (Sakura Finetek), frozen, cut in the longitudinal plane at 14 μm, and mounted on coated slides. Regenerating axons were visualized by staining with a sheep antibody to GAP-43 followed by a fluorescently labeled secondary antibody.
Axon growth was quantified by counting the number of GAP-43-positive axons extending 0.5, 1, 1.5 and 2 mm from the end of the crush site in at least eight sections per case. The cross-sectional width of the nerve was measured at the point at which the counts were taken and was used to calculate the number of axons per millimeter of nerve width. The number of axons per millimeter was then averaged over the number of sections. Σad, the total number of axons extending distance din a nerve having a radius of r, was estimated by summing over all sections having a thickness t (14 μm):
Σad=πr^2×[average axons/mm]/t

In data set [2] the test system is retinal ganglion cells (RGC). Briefly: RGC survival after optic nerve crush, βIII-tubulin-stained retinal whole mounts. The class given is in vivo, mouse. The following applies: for RGC survival when chelator given only on Day 3: single administration 3 d after ONC. The procedure:
as §1, §2, §3
Images of eight preselected areas, 2 mm from the optic disc were captured under fluorescent illumination (400×; E800; Nikon). βIII-Tubulin-positive cells were counted using NIH ImageJ software (Wayne Rasband, National Institutes of Health, Bethesda, Md.). Cell densities were averaged across all eight areas.

The test system of the next data set is Caspase-3. The data set can be described thus: Caspase-3 immunostaining of retinal cross-sections 5 days after optic nerve crush. The class given is in vivo, mouse. The text has this:
(§4) FIG. 6A-FIG. 6C show results from experiments that indicate Chelation of free Zn^2+ suppresses molecular changes that lead to RGC apoptosis. A) Cross-sections through the normal retina or 5 days after optic nerve crush, with or without treatment with the Zn^2+ chelator TPEN. Sections were immunostained to detect the anti-apoptotic protein Bcl-xL or the pro-apoptotic enzymes Caspase-3 or -8. B) C) Quantitation of cellular changes (avg. number of stained cells per section). Optic nerve injury causes a marked elevation of Caspases-3 and -8. […] BclxL levels have not been quantified yet, but appear to decrease with optic nerve injury and to be partially preserved by TPEN treatment. gcl: ganglion cell layer; ipl, inner plexiform layer; ink inner nuclear layer.
(§5) Retinal cross-sections from normal mice or 5 days after optic nerve crush, with or without TPEN treatment. Sections were immunostained for the anti-apoptotic protein Bcl-xL or the pro-apoptotic enzymes Caspase-3 or -8. Optic nerve injury causes a marked elevation of Caspases-3 and -8 and a decline in Bcl-xL. TPEN diminishes the expression of Caspases-3 and -8 and attenuates the decline in Bcl-xL gcl: ganglion cell layer; ipl, inner plexiform layer; inl, inner nuclear layer.

The test system of data set [3] is free Zn^2+ in the inner plexiform layer of the retina. Briefly: Free Zn2+ in the retina after optic nerve injury by autometallography (AMG). The class given is in vivo, mouse. The settings on record: chelator injected intraocularly. The procedure:
A) and B) Mice underwent unilateral optic nerve injury and received i.p. injections of sodium selenite immediately afterwards. Levels of free Zn^2+ increase within 6 hours. C) and D) TPEN (100 μM injections starting 1 day before nerve injury) suppresses the increase in free Zn^2+. The temporal resolution of this method is limited by the time delay for TPEN to reach the retina.
We investigated the hypothesis that the liberation of free Zn2+ plays a role in RGC death after axonal injury.
To investigate the possible relationship between ionic Zn^2+ and nerve regeneration, we used autometallography (AMG) to examine changes in the retina, injecting Na2SeO3 i.p. at various times after ONC and euthanizing mice 6 hr later. We detected a dramatic increase in labeling in the IPL, the layer of the retina that contains synaptic inputs from retinal interneurons onto RGC dendrites, especially in 2 sublayers (FIG. 11B). IPL labeling in-creased up to 24 hr but declined by 3 days, at which time labeling appeared in RGCs themselves. […] This interpretation is supported by studies using a membrane-permeable fluorescent Zn^2+ sensor, Zinpyr1, which has a strong preference for Zn^2+ over Ca^2+ (41). […] As with AMG, Zinpyr1 labeling was elevated in RGCs but not IPL at 3 days (FIG. 11K). The Zn^2+ transporter ZnT3 is also localized in the IPL (FIG. 11L).

Another data set has as its system Bcl-xL. The data set can be described thus: Bcl-xL immunostaining of retinal cross-sections 5 days after optic nerve crush. Type of data set: in vivo, mouse.
From the text: as §4, §5

A further data set has as its system Adult rat RGCs. Briefly: Axon outgrowth in cultured adult RGCs in defined media. Type of data set: cell-based. The following applies: ZX1 10 μM; with or without forskolin, mannose, oncomodulin.
A short description of data set [4]: Hydrolytic stability of the sulfonate ester at pH 7. The class given is physicochemical.
Data set [5] relates to porcine liver esterase (PLE). The data set can be described thus: Enzymatic cleavage by esterase followed by UV/vis. Type of data set: in vitro ADME. The settings on record: 25% MeOH/PBS at 37° C., 0.2 unit/ml porcine liver esterase. The procedure:
A) change of UV/vis spectrum of 3 in 25% MeOH/PBS upon addition of esterase at 37° C. The final spectrum matched the spectrum of ZX1 (B). A) Insert: the decrease of absorbance at 340 nm.
The AcOTFMB sulfonate ester, 1, was synthesized with 88% yield by esterifying 2-nitrobenzenesulfonyl chloride with the corresponding alcohol in the presence of DABCO as the base. Reduction of the nitro functionality with hydrogen afforded the aniline, 2, with 99% yield. The dipicolylamine (DPA) zinc-binding unit can be installed to the aniline via reduction amination to afford the target molecule, 3, in 10% yield (Scheme 1). […] In 25% MeOH/PBS at 37° C., upon introduction of 0.2 unit/ml porcine liver esterase (PLE), The UV/vis spectrum gradually changes with an isosbestic point of 317 nm, to produce a peak at 307 nm (FIG. 10).

Where [6] appears, read: injected into the eye just after ONC and again after 4 days.

Where “and” joins values, the source holds several entries; their conditions need not be identical. Equal entries are not always repeated. Entries after “also recorded” stand apart in the source; their conditions may differ.

Take `O=C(O)CN(CCN(CC(=O)O)CC(=O)O)CC(=O)O.[Ca]` [CaEDTA]: the “effect on axon regeneration” value in data set [1] was “led to axon outgrowth”. Moreover, the “effect on RGC survival 2 weeks after ONC” value is “doubled” in data set [2] (setting [6]); “promotes cell survival” in data set [2] (injected into the eye just after ONC and again after 4 days, listed as Ca-EDTA).

`CC[N+](CC)(CC)CC` [TEA, tetraethylammonium]: the “RGC survival after optic nerve injury with K+ channel blockers” value in data set [2] (FIG. 16) is “blocks RGC death after ONC to the same extent as TPEN; also recorded: strong effect”. Besides, the “concentration affording strong protection of RGCs” value in data set [2] (mouse, in vivo) is < 100 µM and 100 µM.

On to `c1ccc(CN(CCN(Cc2ccccn2)Cc2ccccn2)Cc2ccccn2)nc1` [TPEN, N,N,N′,N′-tetrakis(2-pyridylmethyl)ethylenediamine], for which the “maximally effective concentration for axon regeneration (unit not given)” value in data set [1] (in µM) is recorded as 100-500. Further, in data set [1], the “added effect of pre-treatment (additional injection one day before ONC) on axon regeneration” value is recorded as “markedly increased the number of regenerating axons; also recorded: augmented the amount of regeneration”, the “most effective concentration for axon regeneration” value worked out at 100 µM, the “effect on axon regeneration” value is recorded as “led to axon outgrowth” and the “axon regeneration in combination with pten gene deletion” value is reported as “much greater effects on regeneration than either one alone; also recorded: double”. Further, in data set [1] (single administration 3 d after ONC), the “axon regeneration when injected on D3” value is “did not promote regeneration”. In data set [2] (compared with injections on day 0 and day 4 only), the “added effect of pre-treatment (additional injection one day before ONC) on RGC survival” value is “not augmented; also recorded: did not enhance RGC survival”. The “effect on RGC survival 2 weeks after ONC” value in data set [2] (setting [6]) was “protected RGCs”. Besides, the “most effective concentration for RGC survival” value in data set [2] (intraocular, day 0 and day 4 after optic nerve crush, survival at 2 weeks) turned out to be 100 µM. For the same molecule, the “RGC survival in combination with pten gene deletion” value in data set [2] (pten deleted in RGCs by AAV2-Cre, 2 weeks) is listed as “no additional effect”. Further, the “RGC survival when chelator given only on Day 3” value in data set [2] is given as “fully protective”. In data set [2] (up to 12 wk after ONC), the “long-lasting RGC survival” value is reported as “enduring protection”. Moreover, the “injury-induced increase in Caspase-3” value in the data set on Caspase-3 was “suppressed; also recorded: diminishes the number of Caspase-3 positive cells”. Besides, in data set [3], the “free Zn2+ level / AMG labeling in the retina after optic nerve injury” value is reported as “diminishes Zn2+ levels; also recorded: blocked injury-induced labeling in the IPL”. The “injury-induced decrease in Bcl-xL” value in the data set with Bcl-xL is “suppressed; also recorded: partially blocks Bcl-xL loss after ONC”.

Consider `O=S(=O)(O)c1ccccc1NCCN(Cc1ccccn1)Cc1ccccn1` [ZX1], for which the “GAP-43-positive axons at 0.5 mm from crush site” value in data set [1] (2 weeks after crush, ZX1 10 μM˜10 mM injection, crush alone 7.05±2.49 axons) is “up to 164 axons”. For the same molecule, in data set [1], the maximally effective concentration for axon regeneration (unit not given) turned out to be 30 µM, the “added effect of pre-treatment (additional injection one day before ONC) on axon regeneration” value is recorded as “augmented the amount of regeneration”, the “most effective concentration for axon regeneration” value came out at 100 µM and the “effect on axon regeneration” value was “induces extensive regeneration; also recorded: similarly effective in inducing regeneration”. Also, in data set [1], the “axon regeneration in combination with pten gene deletion” value is “double”. For the same molecule, the “axon regeneration when added to Zymosan + cAMP alone” value in data set [1] (long-term, FIG. 18) is recorded as “increases the effect of Zymosan+ cAMP alone”. The “axon regeneration when added to Zymosan, elevation of cAMP and pten gene deletion” value in data set [1] (long-term, examined 12 weeks after chelator) is “nearly doubles the amount of regeneration seen at short distances from the injury site”. For the same molecule, the “dose dependence of RGC survival” value in data set [2] (ZX1 between 10 μM and 10 mM) was “roughly equally effective in promoting cell survival; also recorded: equally protective against RGC death at all concentrations from 10 μM up”. Also, the “effect on RGC survival 2 weeks after ONC” value in data set [2] (setting [6]) is given as “just as effective as TPEN; also recorded: doubled”. Besides, the “RGC survival when chelator given only on Day 3” value in data set [2] is “less effective”. Also, the “axon outgrowth of cultured RGCs” value in the data set on Adult rat RGCs is “no effect”. Also, the “free Zn2+ level / AMG labeling in the retina after optic nerve injury” value in data set [3] is listed as “blocked injury-induced labeling in the IPL”.

Consider `O=C(O)CN(CCN(CC(=O)O)CC(=O)O)CC(=O)O.[Zn]` [ZnEDTA], for which the “effect on axon regeneration” value in data set [1] is “not”. Besides, the “effect on RGC survival 2 weeks after ONC” value in data set [2] (mouse, in vivo) is given as “not”.

Take `CC(=O)Oc1ccc(C(OS(=O)(=O)c2ccccc2NCCN(Cc2ccccn2)Cc2ccccn2)C(F)(F)F)cc1` (stereo not shown) [compound 3, 4-(1-(((2-((2-(bis(pyridin-2-ylmethyl)amino)ethyl)amino)phenyl)sulfonyl)oxy)-2,2,2-trifluoroethyl)phenyl acetate]: the stability toward hydrolysis entry in data set [4] was “stable at pH 7 for several days without being hydrolyzed”. The “susceptibility to esterase cleavage” value in data set [5] is given as “susceptible to enzymatic cleavage to afford ZX1”.

Regarding “Agitoxin-2: blocker of Shaker family K+ channels Kv1.1 and 1.3”, the “RGC survival after optic nerve injury with K+ channel blockers” value in data set [2] (FIG. 16) is recorded as “only a small effect on RGC survival”; in data set [2] (FIG. 16, listed as AgTx2) it was “slightly improves RGC survival”. In addition, the “RGC survival in combination with TPEN” value in data set [2] (FIG. 16) was “does not augment the effect of TPEN”.

The record behind these values is US20180085359A1, “USE OF CHELATORS OF DIVALENT CATIONS TO PROMOTE NERVE REGENERATION” (CHILDREN'S MEDICAL CENTER CORPORATION, priority 2012, published 2018).
